Data on 37 molecules can be found in US7494987B2, “Agent for treating respiratory diseases containing 4-hydroxypiperidine derivative as active ingredient” (priority 2002, dated 2009).

Molecules are shown by their SMILES.

Data set [1] concerns Citric Acid-Induced Cough Reflex in Guinea Pigs. Description: Inhibitory effect on citric acid-induced cough reflex in guinea pigs (Experimental Example 1-1, plethysmograph). In kind it is in vivo. To be noted: oral, cough measured 1 hr after treatment. On the procedure: Guinea pigs were fasted overnight. They were fixed to a plethysmograph, and then the change of inner pressure in the plethysmograph (body side) was recorded on an ink-recording paper (Nihon Kohden Corporation; WI-642G) via the differential pressure transducer (Nihon Kohden Corporation; TP-602T) and the respiration amplifier (Nihon Kohden Corporation; AR-601G). Using a nebulizer (OMRON Corporation; NE-U12), 20 W/V % citric acid solution was sprayed into the plethysmograph (head side) for 2 min (about 1 mL/min). The number of cough response for 15 min after the spray was measured.
(§1) The cough response was measured 3 hrs before and 1 hr after oral treatment. The test compound was not administered to the guinea pigs showing 5 coughs response or less before the treatment. The ratio of cough response between before and after the treatment (Post/Pre×100) was calculated, and the percent inhibition of the test compound on cough reflex induced by citric acid was determined according to the following formula: [(CRRcontrol−CRRtest)/(CRRcontrol)]×100 (%) • CRRcontrol: Ratio (%) of cough response in the control group • CRRtest: Ratio (%) of cough response in the compound-treated group

Data set [2] has the same test system. The data set can be described thus: Inhibitory action on citric acid-induced cough reflex in guinea pigs (Experimental Example 1-2, nasal inhalation-exposure apparatus). In kind it is in vivo. To be noted: oral, 30 mg/kg, cough measured 1 hr after treatment. How it is done:
Guinea pigs were fasted overnight. They were fixed to an nasal inhalation-exposure apparatus for small animals (M.I.P.S. Co., Ltd.), and then 20 W/V % citric acid solution was sprayed into the plethysmograph for 2 min (about 1 mL/min) using a nebulizer (M.I.P.S. Co., Ltd.). The number of cough response for 15 min after the spray was measured.
as §1, with “5 cough responses” for “5 coughs response”, “compound-treated group.” for “compound-treated group”

Usually melting point stands for the temperature of the solid-liquid transition. Molecule `CN(CC1(O)CCN(CCc2ccc(C#N)cc2)CC1)c1ccc(C(=O)O)cc1Cl.Cl` displayed a melting point of 254.2 to 258.9 °C. On the same count and under the same terms, as for `COc1cc(N(C)CC2(O)CCN(CCc3ccc(C#N)cc3)CC2)c(Cl)cc1C(=O)O.Cl`, the figure is 116.3 to 120.8 °C; as for `CN(CC1(O)CCCN(CCc2ccc(C#N)cc2)C1)c1ccc(C(=O)O)cc1.Cl` (stereo not shown), 220.1 to 233.3 °C; as for `CN(CCC1(O)CCN(CCc2ccc(C#N)cc2)CC1)c1ccc(C(=O)O)cc1.Cl`, 231.3 to 236.4 °C. Still for that read-out and setting: as for `Cc1cc(C(=O)O)ccc1N(C)CC1(O)CCN(CCc2ccc(C#N)cc2)CC1.Cl`, the figure is 127.1 to 132.7 °C; as for `CN(CC1(O)CCN(CCc2ccc(C#N)cc2)CC1)c1ccc(C(=O)O)c(Cl)c1.Cl`, 145.2 to 148 °C. The same measure, in the same setting: as for `CN(CC1(O)CCN(CCc2ccc(C#N)cc2)CC1)c1ccc(C(=O)NO)cc1.Cl`, the figure is 191.3 to 193.9 °C; as for `CN(CC1(O)CCN(Cc2ccc(C#N)cc2)CC1)c1ccc(C(=O)O)cc1.Cl`, 153.1 to 157.7 °C. Turning to `CN(CC1(O)CCN(CCCc2ccc(C#N)cc2)CC1)c1ccc(C(=O)O)cc1.Cl`, the melting point was in the range of 150.1 to 151.2 °C.

In turn, `CN(CC1(O)CCN(CCOc2ccc(C#N)cc2)CC1)c1ccc(C(=O)O)cc1.Cl` showed a melting point of 258.4 to 260.1 °C.

`COC1(CN(C)c2ccc(C(=O)O)cc2)CCN(CCc2ccc(C#N)cc2)CC1.Cl` gave a melting point of 226.3 to 230.7 °C. The same measure, in the same setting: for `Cl.N#Cc1ccc(CCN2CCC(O)(C[S+]([O-])c3ccc(C(=O)O)cc3)CC2)cc1` (stereo not shown) the value was 279.7 °C (dec.). Consider `COc1ccc2c3c1O[C@H]1[C@@H](O)C=C[C@H]4[C@@H](C2)N(C)CC[C@@]341` [Codeine phosphate], for which the “Percent inhibition on cough reflex” value in data set [1] (10 mg/kg) is recorded as 40%; in data set [1] (30 mg/kg) it was 44%; in data set [1] (60 mg/kg), 66%. `Cc1cc(C(=O)O)ccc1N(C)CC1(O)CCN(CCc2ccc(C#N)cc2)CC1` [Example 3, 4-({1-[2-(4-cyanophenyl)ethyl]-4-hydroxypiperidin-4-ylmethyl}methylamino)-3-methylbenzoic acid] returned a melting point of 103.6 to 108.7 °C. Same read-out and setting: as for `COc1cc(C(=O)O)ccc1N(C)CC1(O)CCN(CCc2ccc(C#N)cc2)CC1` [Example 4, 4-({1-[2-(4-cyanophenyl)ethyl]-4-hydroxypiperidin-4-ylmethyl}methylamino)-3-methoxybenzoic acid], the figure is 252.6 °C (dec.); as for `CN(CC1(O)CCN(CCc2ccc(C#N)cc2)CC1)c1ccc(C(=O)O)c(Cl)c1` [Example 5, 2-chloro-4-({1-[2-(4-cyanophenyl)ethyl]-4-hydroxypiperidin-4-ylmethyl}methylamino)benzoic acid], 186.2 to 189.6 °C; as for `CN(CC1(O)CCN(CCc2ccc(C#N)cc2)CC1)c1ccc(C(=O)O)cc1Cl` [Example 6, 3-chloro-4-({1-[2-(4-cyanophenyl)ethyl]-4-hydroxypiperidin-4-ylmethyl}methylamino)benzoic acid], 110.7 to 112.4 °C. Still for that read-out and setting: as for `COc1cc(N(C)CC2(O)CCN(CCc3ccc(C#N)cc3)CC2)c(Cl)cc1C(=O)O` [Example 7, 5-chloro-4-({1-[2-(4-cyanophenyl)ethyl]-4-hydroxypiperidin-4-ylmethyl}methylamino)-2-methoxybenzoic acid], the figure is 226.8 to 228.3 °C; as for `CN(CC1(O)CCCN(CCc2ccc(C#N)cc2)C1)c1ccc(C(=O)OC(C)(C)C)cc1` (stereo not shown) [Example 9, tert-butyl 4-({1-[2-(4-cyanophenyl)ethyl]-3-hydroxypiperidin-3-ylmethyl}methylamino)benzoate], 41.2 to 44.1 °C.

In turn, `COC(=O)c1ccc(N(C)CC2(O)CN(CCc3ccc(C#N)cc3)C2)cc1` [Example 10, methyl 4-({1-[2-(4-cyanophenyl)ethyl]-3-hydroxyazetidin-3-ylmethyl}methylamino)benzoate] registered a melting point of 145.5 to 149.1 °C. On to `COC(=O)c1ccc(N(C)CC2(O)CCN(CCc3ccc(C#N)cc3)CC2)cc1` [Example 12, methyl 4-({1-[2-(4-cyanophenyl)ethyl]-4-hydroxypiperidin-4-ylmethyl}methylamino)benzoate], for which the melting point was in the range of 140.5 to 142.2 °C. The same measure, in the same setting: for `COC(=O)c1ccc(OCC2(O)CCN(CCc3ccc(C#N)cc3)CC2)cc1` [Example 13, methyl 4-{1-[2-(4-cyanophenyl)ethyl]-4-hydroxypiperidin-4-ylmethoxy}benzoate] the value was 118.6 to 120.6 °C; for `CN(CC1(O)CCN(CCc2ccc(C#N)cc2)C1)c1ccc(C(=O)O)cc1` (stereo not shown) [Example 14, 4-({1-[2-(4-cyanophenyl)ethyl]-3-hydroxypyrrolidin-3-ylmethyl}methylamino)benzoic acid], 106.1 to 130.8 °C.

For `CN(CC1(O)CCCN(CCc2ccc(C#N)cc2)C1)c1ccc(C(=O)O)cc1` (stereo not shown) [Example 15, 4-({1-[2-(4-cyanophenyl)ethyl]-3-hydroxypiperidin-3-ylmethyl}methylamino)benzoic acid], the melting point was in the range of 166.9 to 181.3 °C. In turn, `CN(CCC1(O)CCN(CCc2ccc(C#N)cc2)CC1)c1ccc(C(=O)O)cc1` [Example 16, 4-[(2-{1-[2-(4-cyanophenyl)ethyl]-4-hydroxypiperidin-4-yl}ethyl)methylamino]benzoic acid] displayed a melting point of 146.8 to 148.4 °C. On the same count and under the same terms, as for `CN(CC1(O)CN(CCc2ccc(C#N)cc2)C1)c1ccc(C(=O)O)cc1` [Example 17, 4-({1-[2-(4-cyanophenyl)ethyl]-3-hydroxyazetidin-3-ylmethyl}methylamino)benzoic acid], the figure is 197.9 to 199.4 °C; as for `COC(=O)c1ccc(N(C)CC2(O)CCN(Cc3ccc(C#N)cc3)CC2)cc1` [Example 20, methyl 4-{[1-(4-cyanobenzyl)-4-hydroxypiperidin-4-ylmethyl]methylamino}benzoate], 127.5 to 137.1 °C.

The molecule `COC(=O)c1ccc(N(C)CC2(O)CCN(CCCc3ccc(C#N)cc3)CC2)cc1` [Example 21, methyl 4-({1-[3-(4-cyanophenyl)propyl]-4-hydroxypiperidin-4-ylmethyl}methylamino)benzoate] gave a melting point of 126.8 to 129.7 °C. Still for that read-out and setting: as for `COC(=O)c1ccc(N(C)CC2(O)CCN(CCOc3ccc(C#N)cc3)CC2)cc1` [Example 22, methyl 4-({1-[2-(4-cyanophenoxy)ethyl]-4-hydroxypiperidin-4-ylmethyl}methylamino)benzoate], the figure is 112.5 to 113 °C; as for `CN(CC1(O)CCN(CCc2ccc(C#N)cc2)CC1)c1ccc(C(=O)NOC2CCCCO2)cc1` (stereo not shown) [Example 23, 4-({1-[2-(4-cyanophenyl)ethyl]-4-hydroxypiperidin-4-ylmethyl}methylamino)-N-(tetrahydropyran-2-yloxy)benzamide], 100.9 to 102.1 °C. `COC(=O)c1ccc(N(C)CC2(O)CCN(CCc3ccc(C(F)(F)F)cc3)CC2)cc1` [Example 24, methyl 4-({4-hydroxy-1-[2-(4-trifluoromethylphenyl)ethyl]piperidin-4-ylmethyl}methylamino)benzoate] registered a melting point of 142.7 to 143.9 °C. With `COC(=O)c1ccc(N(C)CC2(OC)CCN(CCc3ccc(C#N)cc3)CC2)cc1` [Example 25, methyl 4-({1-[2-(4-cyanophenyl)ethyl]-4-methoxypiperidin-4-ylmethyl}methylamino)benzoate], the melting point lay in the range of 126.9 to 134.5 °C. In turn, `CN(CC1(O)CCN(CCc2ccc(C#N)cc2)C1)c1ccc(C(=O)O)cc1.Cl` (stereo not shown) [Example 29, 4-({1-[2-(4-Cyanophenyl)ethyl]-3-hydroxypyrrolidin-3-ylmethyl}methylamino)benzoic acid monohydrochloride] returned a melting point of 122.8 to 132.5 °C. Besides, in data set [2], the “Percent inhibition on cough reflex” value came to 39%. In turn, `COC(=O)c1ccc(SCC2(O)CCN(CCc3ccc(C#N)cc3)CC2)cc1` [Example 42, methyl 4-{1-[2-(4-cyanophenyl)ethyl]-4-hydroxypiperidin-4-ylmethylthio}benzoate] came in with a melting point of 119.1 to 120.8 °C. On the same count and under the same terms, for `COC(=O)c1ccc([S+]([O-])CC2(O)CCN(CCc3ccc(C#N)cc3)CC2)cc1` (stereo not shown) [Example 44, methyl 4-{1-[2-(4-cyanophenyl)ethyl]-4-hydroxypiperidin-4-ylmethylsulfinyl}benzoate] the value was 169.6 to 174.5 °C. Same read-out and setting: as for `COC(=O)c1ccc(S(=O)(=O)CC2(O)CCN(CCc3ccc(C#N)cc3)CC2)cc1` [Example 46, methyl 4-{1-[2-(4-cyanophenyl)ethyl]-4-hydroxypiperidin-4-ylmethylsulfonyl}benzoate], the figure is 135.4 to 137.2 °C. Turning to `Cn1c(=O)c2[nH]cnc2n(C)c1=O` [Theophylline], in data set [1] (20 mg/kg), the “Percent inhibition on cough reflex” value was determined as 37%.
